Results on two molecules are retold here after DBAASP.

Among the test systems are Bacteroides fragilis; Clostridium septicum; Fusobacterium nucleatum; Cutibacterium acnes; Candida boidinii MIP 104; Bacillus cereus IFO 3514.
What all share (assay): ≥ marks a high value that may be exact or a test limit, other limits are often not marked, values filed in µg/mL are converted to µM
Assay [1] relates to Candida albicans ATCC 90028.
Assay [2] relates to Escherichia coli ATCC 25922.
For assay [3], the system named is Bacteroides fragilis ATCC 25285.
Assay [4] has as its system Enterobacter cloacae HNTCC 53001.
The subject of assay [5] is Fusobacterium varium ATCC 27725.
For assay [6], the system named is Staphylococcus aureus T7/20.
The subject of assay [7] is Clostridium perfringens ATCC 10543.
For assay [8], the system named is Staphylococcus aureus T7/5.
For assay [9], the system named is Prevotella melaninogenica.
Assay [10] deals with Salmonella enterica subsp. enterica serovar Typhimurium LT2.
The subject of assay [11] is Staphylococcus epidermidis RP62A.
Assay [12] deals with Staphylococcus aureus T27/9.
The subject of assay [13] is Clostridium tertium ATCC 19465.
The subject of assay [14] is Staphylococcus aureus NCTC 8325.
In assay [15] the test system is Peptostreptococcus anaerobius.
The test system of assay [16] is Proteus mirabilis ATCC 25933.
Assay [17] deals with Peptoniphilus asaccharolyticus ATCC 29743.
In assay [18] the test system is Klebsiella pneumoniae KK3 9904.
For assay [19], the system named is Enterococcus faecalis ATCC 29212.
For assay [20], the system named is Pseudomonas aeruginosa ATCC 27853.
Assay [21] relates to Cutibacterium acnes ATCC 11828.
For assay [22], the system named is Enterococcus faecalis JCM 8726.
In assay [23] the test system is Geobacillus stearothermophilus IFO12550.
Assay [24] deals with Pseudomonas aeruginosa IFO 3445.
Assay [25] deals with Candida albicans IFO 1385.
For assay [26], the system named is Saccharomyces cerevisiae KK4.
For assay [27], the system named is Kitasatospora kifunensis MN1.
The test system of assay [28] is Salmonella typhimurium IFO 12529.
The subject of assay [29] is Staphylococcus aureus IFO 13276.
Assay [30] has as its system Agrobacterium tumefaciens LBA 4404.
The test system of assay [31] is Levilactobacillus brevis IFO 3345.
Assay [32] relates to Bacillus subtilis IFO 3336.
Assay [33] concerns Escherichia coli IFO 3301.
In assay [34] the test system is Aspergillus niger IFO 4416.
The test system of assay [35] is Staphylococcus aureus ATCC 33591.

Values after ≈ are worked out from the molar mass of the structure shown.

A word on the MIC: it is the least concentration at which growth counts as inhibited.

For `CC[C@H](C)[C@H](NC(=O)[C@H](CO)NC(=O)[C@H](CO)NC(=O)[C@H](CC(C)C)NC(=O)[C@@H](N)Cc1ccccc1)C(=O)NCC(=O)N[C@@H](CCCCN)C(=O)N[C@H](C(=O)N[C@@H](CC(C)C)C(=O)NCC(=O)N[C@@H](CC(N)=O)C(=O)N[C@@H](CC(C)C)C(=O)N[C@@H](CC(C)C)C(N)=O)[C@@H](C)CC` [FLSSIGKILGNLL], the MIC was no less than 50 µM in the assay on Bacteroides fragilis; no less than 160 µM in [1]; no less than 50 µM in the assay with Clostridium septicum; no less than 50 µM against Fusobacterium nucleatum; 40 µM (≈ 54.9 µg/mL) in assay [2]; no less than 50 µM in assay [3]. In addition, the minimal inhibitory concentration (MIC) against Cutibacterium acnes was 12.5 µM (≈ 17.2 µg/mL); in [4], no less than 40 µM; in [5] it was no less than 50 µM; in [6], 20 µM (≈ 27.5 µg/mL); in assay [7], 25 µM (≈ 34.3 µg/mL); in assay [8], 20 µM (≈ 27.5 µg/mL). Besides, the MIC in assay [9] was 25 µM (≈ 34.3 µg/mL); in assay [10], no less than 50 µM; in assay [11] it was 20 µM (≈ 27.5 µg/mL); in [12] it was no less than 40 µM; in assay [13], 12.5 µM (≈ 17.2 µg/mL); in assay [14], 10 µM (≈ 13.7 µg/mL). For the same molecule, the MIC in [15] was 25 µM (≈ 34.3 µg/mL); in [16] it was no less than 100 µM; in assay [17], no less than 50 µM; in assay [18] it was no less than 80 µM; in assay [19] it was 40 µM (≈ 54.9 µg/mL); in [20], 160 µM (≈ 220 µg/mL). Besides, the MIC in [21] came to 6 µM (≈ 8.24 µg/mL).

Consider `NC(N)=NCCC[C@H](NC(=O)[C@H](Cc1cnc[nH]1)NC(=O)[C@H](CCCN=C(N)N)NC(=O)[C@H](Cc1cnc[nH]1)NC(=O)[C@H](CCCN=C(N)N)NC(=O)[C@H](Cc1cnc[nH]1)NC(=O)[C@H](CCCN=C(N)N)NC(=O)[C@H](Cc1cnc[nH]1)NC(=O)[C@@H](N)CCCN=C(N)N)C(=O)N[C@@H](Cc1cnc[nH]1)C(=O)O` [RHRHRHRHRH], for which the MIC in [22] was 6.74 µM (≈ 10 µg/mL); in assay [23], 6.74 µM (≈ 10 µg/mL); against Candida boidinii MIP 104, 6.74 µM (≈ 10 µg/mL); in [24] it was 6.74 µM (≈ 10 µg/mL); in the assay on Bacillus cereus IFO 3514, no less than 269 µM; in [25], no less than 67.4 µM. The MIC in [26] was no less than 67.4 µM; in assay [27], no less than 269 µM; in [28] it was no less than 101 µM; in assay [29], no less than 33.7 µM; in assay [30] it was 6.74 µM (≈ 10 µg/mL); in assay [31], 6.74 µM (≈ 10 µg/mL). The MIC in assay [32] is 6.74 µM (≈ 10 µg/mL); in [33], 6.74 µM (≈ 10 µg/mL); in assay [34], no less than 33.7 µM; in assay [35], no less than 33.7 µM.
